Data published in ChEMBL document CHEMBL5352486, “Design, synthesis, in vitro - In vivo biological evaluation of novel thiazolopyrimidine compounds as antileishmanial agent with PTR1 inhibition” (Eur J Med Chem, 2023).
pIC50: −log10 of the molar value. In brackets after ≈: the same amount, converted by molar mass. Activity calls are given as the source filed them. The calls are words filed in the database; no cut-off is given here.

Assays:
Leishmania tropica = assay: Antileishmanial activity against Leishmania tropica MHOM/A7/1974/SAF-K27 incubated for 48 hrs by Neubauer hemocytometer analysis; format: functional, organism-based; conditions: MHOM/A7/1974/SAF-K27, 48 h
Leishmania infantum [1] = assay: Antileishmanial activity against Leishmania infantum MHOM/TN/1980/IPT1 incubated for 48 hrs by Neubauer hemocytometer analysis; format: functional, organism-based; conditions: MHOM/TN/1980/IPT1, 48 h
Leishmania infantum [2] = assay: Antileishmanial activity against Leishmania infantum MHOM/TN/1980/IPT1 incubated for 48 hrs by XTT method; format: functional, organism-based; conditions: MHOM/TN/1980/IPT1, 48 h
Pteridine reductase 1 = molecular target: T1, Pteridine reductase 1 (Leishmania major, UniProt Q01782); assay: Inhibition of recombinant Leishmania major PTR1 expressed in Escherichia coli BL21 using folic acid as substrate in presence of NADPH
T1 sequence (Q01782 whole entry): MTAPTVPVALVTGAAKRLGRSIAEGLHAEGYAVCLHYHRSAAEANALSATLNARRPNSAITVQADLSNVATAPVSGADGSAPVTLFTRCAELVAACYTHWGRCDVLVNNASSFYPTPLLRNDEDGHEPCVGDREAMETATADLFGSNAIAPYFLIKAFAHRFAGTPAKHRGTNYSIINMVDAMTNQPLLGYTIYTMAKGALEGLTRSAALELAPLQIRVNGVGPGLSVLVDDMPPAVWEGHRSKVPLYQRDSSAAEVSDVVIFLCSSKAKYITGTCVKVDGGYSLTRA

[3] = system: DHFR (human) versus PTR1 (Leishmania major); assay: Selectivity index, ratio of IC50 for human DHFR to IC50 for Leishmania major PTR1; format: toxicity; conditions: human DHFR enzyme and Leishmania major PTR1 enzyme, read-out: Ratio IC50
[4] = (§1) Cytotoxicity against mouse L929 cells by alamar blue method; format: toxicity, cell-based; conditions: mouse, L929 cells
L929 = assay: as §1; format: toxicity, cell-based; conditions: l929
Leishmania infantum [5] = assay: Antileishmanial activity against Leishmania infantum infected in BALB/c mouse model of cutaneous leishmaniasis assessed as footpad lesion development at 50 mg/kg/day, ID administered for 21 days and measured after 2 weeks by Giemsa staining based analysis (reference value: 1.61 +/- 0.03); format: functional; conditions: time 21 day
Leishmania infantum [6] = assay: Antileishmanial activity against Leishmania infantum infected in BALB/c mouse model of cutaneous leishmaniasis assessed as footpad lesion development at 50 mg/kg/day, ID administered for 21 days and measured after 6 weeks by Giemsa staining based analysis (reference value: 2.40 +/- 0.03); format: functional; conditions: time 21 day
Leishmania infantum [7] = assay: Antileishmanial activity against Leishmania infantum infected in BALB/c mouse model of cutaneous leishmaniasis assessed as footpad lesion development at 50 mg/kg/day, ID administered for 21 days and measured after 8 weeks by Giemsa staining based analysis (reference value: 3.13 +/- 0.03); format: functional; conditions: time 21 day
Leishmania infantum [8] = assay: Antileishmanial activity against Leishmania infantum infected in BALB/c mouse model of cutaneous leishmaniasis assessed as footpad lesion development at 50 mg/kg/day, ID administered for 21 days and measured after 10 weeks by Giemsa staining based analysis (reference value: 3.40 +/- 0.03); format: functional; conditions: time 21 day
Leishmania infantum [9] = assay: Antileishmanial activity against Leishmania infantum infected in BALB/c mouse model of cutaneous leishmaniasis assessed as footpad lesion development at 50 mg/kg/day, ID administered for 21 days and measured after 12 weeks by Giemsa staining based analysis (reference value: 3.61 +/- 0.03); format: functional; conditions: time 21 day
Leishmania infantum [10] = assay: Antileishmanial activity against Leishmania infantum infected in BALB/c mouse model of cutaneous leishmaniasis assessed as footpad lesion development at 50 mg/kg/day, ID administered for 21 days and measured after 14 weeks by Giemsa staining based analysis (reference value: 3.88 +/- 0.03); format: functional; conditions: time 21 day
Leishmania infantum [11] = assay: Antileishmanial activity against Leishmania infantum infected in BALB/c mouse model of cutaneous leishmaniasis assessed as footpad lesion development at 50 mg/kg/day, ID administered for 21 days and measured after 16 weeks by Giemsa staining based analysis (reference value: 4.20 +/- 0.03); format: functional; conditions: time 21 day
Leishmania infantum [12] = assay: Antileishmanial activity against Leishmania infantum infected in BALB/c mouse model of cutaneous leishmaniasis assessed as footpad lesion development at 50 mg/kg/day, ID administered for 21 days and measured after 20 weeks by Giemsa staining based analysis (reference value: 4.54 +/- 0.04); format: functional; conditions: time 21 day
Leishmania infantum [13] = assay: Antileishmanial activity against Leishmania infantum infected in BALB/c mouse model of cutaneous leishmaniasis assessed as footpad lesion development at 50 mg/kg/day, ID administered for 21 days and measured after 26 weeks by Giemsa staining based analysis (reference value: 4.91 +/- 0.01); format: functional; conditions: time 21 day
Leishmania infantum [14] = assay: Antileishmanial activity against Leishmania infantum infected in BALB/c mouse model of cutaneous leishmaniasis assessed as footpad lesion development at 50 mg/kg/day, ID administered for 21 days and measured after 28 weeks by Giemsa staining based analysis (reference value: 4.92 +/- 0.01); format: functional; conditions: time 21 day
Leishmania infantum [15] = assay: Antileishmanial activity against Leishmania infantum infected in BALB/c mouse model of visceral leishmaniasis assessed as footpad lesion development at 50 mg/kg/day, IM administered for 21 days and measured after 2 weeks by Giemsa staining based analysis (reference value: 29.73 +/- 0.63); format: functional; conditions: time 21 day
Leishmania infantum [16] = assay: Antileishmanial activity against Leishmania infantum infected in BALB/c mouse model of visceral leishmaniasis assessed as footpad lesion development at 50 mg/kg/day, IM administered for 21 days and measured after 4 weeks by Giemsa staining based analysis (reference value: 28.01 +/- 0.65); format: functional; conditions: time 21 day
Leishmania infantum [17] = assay: Antileishmanial activity against Leishmania infantum infected in BALB/c mouse model of visceral leishmaniasis assessed as footpad lesion development at 50 mg/kg/day, IM administered for 21 days and measured after 6 weeks by Giemsa staining based analysis (reference value: 25.81 +/- 0.84); format: functional; conditions: time 21 day
Leishmania infantum [18] = assay: Antileishmanial activity against Leishmania infantum infected in BALB/c mouse model of visceral leishmaniasis assessed as footpad lesion development at 50 mg/kg/day, IM administered for 21 days and measured after 8 weeks by Giemsa staining based analysis (reference value: 23.84 +/- 0.93); format: functional; conditions: time 21 day
Leishmania infantum [19] = assay: Antileishmanial activity against Leishmania infantum infected in BALB/c mouse model of visceral leishmaniasis assessed as footpad lesion development at 50 mg/kg/day, IM administered for 21 days and measured after 10 weeks by Giemsa staining based analysis (reference value: 21.58 +/- 0.74); format: functional; conditions: time 21 day
Leishmania infantum [20] = assay: Antileishmanial activity against Leishmania infantum infected in BALB/c mouse model of visceral leishmaniasis assessed as footpad lesion development at 50 mg/kg/day, IM administered for 21 days and measured after 11 weeks by Giemsa staining based analysis (reference value: 20.71 +/- 0.48); format: functional; conditions: time 21 day
Leishmania infantum [21] = assay: Antileishmanial activity against Leishmania infantum infected in BALB/c mouse model of visceral leishmaniasis assessed as parasite growth in liver at 50 mg/kg/day, IM administered for 21 days; format: functional, organism-based; conditions: time 21.0 day
Leishmania infantum [22] = assay: Antileishmanial activity against Leishmania infantum infected in BALB/c mouse model of cutaneous leishmaniasis assessed as parasite growth in liver at 50 mg/kg/day, ID administered for 21 days; format: functional, organism-based; conditions: time 21.0 day
Leishmania infantum [23] = assay: Antileishmanial activity against Leishmania infantum infected in BALB/c mouse model of cutaneous leishmaniasis assessed as parasite growth in spleen at 50 mg/kg/day, ID administered for 21 days; format: functional, organism-based; conditions: time 21.0 day
Leishmania infantum [24] = assay: Antileishmanial activity against Leishmania infantum infected in BALB/c mouse model of cutaneous leishmaniasis assessed as parasite growth in foodpad at 50 mg/kg/day, ID administered for 21 days; format: functional, organism-based; conditions: time 21.0 day

Row | Structure (SMILES) | IC50 (Leishmania tropica) | IC50 (Leishmania infantum [1]) | IC50 (Leishmania infantum [2]) | pIC50 (Pteridine reductase 1) | selectivity ratio [3] | IC50 [4] | log10 IC50 (µg/mL) (L929) | Activity (Leishmania infantum [5]) | Activity (Leishmania infantum [6]) | Activity (Leishmania infantum [7]) | Activity (Leishmania infantum [8]) | Activity (Leishmania infantum [9]) | Activity (Leishmania infantum [10]) | Activity (Leishmania infantum [11]) | Activity (Leishmania infantum [12]) | Activity (Leishmania infantum [13]) | Activity (Leishmania infantum [14]) | Activity (Leishmania infantum [15]) | Activity (Leishmania infantum [16]) | Activity (Leishmania infantum [17]) | also measured
1 | CN(C)c1ncc2nc(NC(=O)c3ccc(Cl)c([N+](=O)[O-])c3)sc2n1 | 7.14 µg/mL (≈ 18.8 µM) | 7.06 µg/mL (≈ 18.6 µM) | 6.77 µg/mL (≈ 17.9 µM) | 3.17 | 7.02 | 21 µg/mL (≈ 55.5 µM) | 1.32 | 1.59 | 2.39 | 3.09 | 3.37 | 3.61 | 3.83 | 3.83 | 4.53 | 4.7 | 3.71 | 29.49 | 27.83 | 26.28 | Activity (Leishmania infantum [18]): 27.42; Activity (Leishmania infantum [19]): 29.09; Activity (Leishmania infantum [20]): 29.85; Activity (Leishmania infantum [21]): Active; Activity (Leishmania infantum [22]): Active; Activity (Leishmania infantum [23]): Active; Activity (Leishmania infantum [24]): Active
2 | CN1CCN(c2ncc3nc(NC(=O)c4ccc(Cl)c(Cl)c4)sc3n2)CC1 | 7.71 µg/mL (≈ 18.2 µM) | 8.16 µg/mL (≈ 19.3 µM) | 8.28 µg/mL (≈ 19.6 µM) | 4.67 | 312 | 27.7 µg/mL (≈ 65.5 µM) | 1.44 | 1.61 | 2.41 | 3.1 | 3.41 | 3.61 | 3.89 | 4.21 | 4.53 | 4.87 | 4.83 | 29.53 | 27.9 | 25.72 | Activity (Leishmania infantum [18]): 23.36; Activity (Leishmania infantum [19]): 21.12; Activity (Leishmania infantum [20]): 20.13; Activity (Leishmania infantum [21]): inactive; Activity (Leishmania infantum [22]): Active; Activity (Leishmania infantum [23]): Active; Activity (Leishmania infantum [24]): inactive
3 | CCOC(=O)N1CCN(c2ncc3nc(NC(=O)c4ccc(Cl)c(Cl)c4)sc3n2)CC1 | 0.039 µg/mL (≈ 0.081 µM) | 0.041 µg/mL (≈ 0.0852 µM) | 0.042 µg/mL (≈ 0.0873 µM) | 3.91 | 42.6 | 14.1 µg/mL (≈ 29.3 µM) | 1.15 | 1.6 | 2.4 | 3.1 | 3.39 | 3.61 | 3.81 | 4.2 | 4.52 | 4.73 | 3.8 | 29.54 | 27.85 | 25.71 | Activity (Leishmania infantum [18]): 26.84; Activity (Leishmania infantum [19]): 27.91; Activity (Leishmania infantum [20]): 28.55; Activity (Leishmania infantum [21]): Active; Activity (Leishmania infantum [22]): Active; Activity (Leishmania infantum [23]): Active; Activity (Leishmania infantum [24]): Active
